Test system: ROK
Assay: ROK activity assay
Format: biochemical
Design: key: +: active; ++: more active; +++: very active
Conditions: assays conducted at 1-100 μM

SMILES | ROK activity
CC(=O)c1ccc(-c2cnc(NCCc3ccncc3)cn2)s1 [1-{5-[5-(2-Pyridin-4-yl-ethylamino)-pyrazin-2-yl]-thiophen-2-yl}-ethanone] | +
OCCC1CCCCN1c1cnc(-c2ccncc2)cn1 (centres unmarked) [2-[1-(5-Pyridin-4-yl-pyrazin-2-yl)-piperidin-2-yl]-ethanol] | +
Oc1cccc(Nc2cncc(-c3ccncc3)c2)c1 [3-([3,4′]Bipyridinyl-5-ylamino)-phenol] | ++
Oc1cccc(CNc2cncc(-c3ccncc3)c2)c1 [3-([3,4′]Bipyridinyl-5-ylaminomethyl)-phenol] | ++
CC(C)C(CO)Nc1cnc(-c2ccncc2)cn1 (centres unmarked) [3-Methyl-2-(5-pyridin-4-yl-pyrazin-2-ylamino)-butan-1-ol] | +
NC(=O)c1cccc(-c2cncc(NCc3ccc(Cl)c(Cl)c3)c2)c1 [3-[5-(3,4-Dichloro-benzylamino)-pyridin-3-yl]-benzamide] | ++
NC(=O)c1cccc(-c2cncc(NCc3ccc(F)c(F)c3)c2)c1 [3-[5-(3,4-Difluoro-benzylamino)-pyridin-3-yl]-benzamide] | ++
NC(=O)c1cccc(-c2cncc(NCc3cc(O)cc(O)c3)c2)c1 [3-[5-(3,5-Dihydroxy-benzylamino)-pyridin-3-yl]-benzamide] | ++
NC(=O)c1cccc(-c2cncc(Nc3cccc(Br)c3)c2)c1 [3-[5-(3-Bromo-phenylamino)-pyridin3-yl]-benzamide] | +
NC(=O)c1cccc(-c2cncc(NCc3cccc(Cl)c3)c2)c1 [3-[5-(3-Chloro-benzylamino)-pyridin-3-yl]-benzamide] | ++
COc1ccc(CNc2cncc(-c3cccc(C(N)=O)c3)c2)cc1O [3-[5-(3-Hydroxy-4-methoxy-benzylamino)-pyridin-3-yl]-benzamide] | ++
O=C(NCCO)c1cccc(-c2cncc(NCc3cccc(O)c3)c2)c1 [3-[5-(3-Hydroxy-benzylamino)-pyridin-3-yl]-N-(2-hydroxy-ethyl)-benzamide] | ++
NC(=O)c1cccc(-c2cncc(NCc3cccc(O)c3)c2)c1 [3-[5-(3-Hydroxy-benzylamino)-pyridin-3-yl]-benzamide] | +++
NC(=O)c1cccc(-c2cncc(Nc3cccc(O)c3)c2)c1 [3-[5-(3-Hydroxy-phenylamino)-pyridin-3-yl]-benzamide] | ++
NC(=O)c1cccc(-c2cncc(NCc3cccc(OC(F)(F)F)c3)c2)c1 [3-[5-(3-Trifluoromethoxy-benzylamino)-pyridin-3-yl]-benzamide] | ++
NC(=O)c1cccc(-c2cncc(NCc3ccc(Cl)c(F)c3)c2)c1 [3-[5-(4-Chloro-3-fluoro-benzylamino)-pyridin-3-yl]-benzamide] | ++
NC(=O)c1cccc(-c2cncc(NCc3ccc(Cl)cc3)c2)c1 [3-[5-(4-Chloro-benzylamino)-pyridin-3-yl]-benzamide] | ++
Oc1cccc(-c2cncc(Nc3ccc(Cl)cc3)c2)c1 [3-[5-(4-Chloro-phenylamino)-pyridin-3-yl]-phenol] | +
NC(=O)c1cccc(-c2cncc(NCc3ccc(O)cc3)c2)c1 [3-[5-(4-Hydroxy-benzylamino)-pyridin-3-yl]-benzamide] | ++
COc1ccc(CNc2cncc(-c3cccc(C(N)=O)c3)c2)cc1 [3-[5-(4-Methoxy-benzylamino)-pyridin-3-yl]-benzamide] | +

SMILES | ROK activity
COc1ccc(Nc2cncc(-c3cccc(C(N)=O)c3)c2)cc1 [3-[5-(4-Methoxy-phenylamino)-pyridin-3-yl]-benzamide] | +
COc1ccc(Nc2cncc(-c3cccc(O)c3)c2)cc1 [3-[5-(4-Methoxy-phenylamino)-pyridin-3-yl]-phenol] | ++
NC(=O)c1cccc(-c2cncc(NCC3CCCCC3)c2)c1 [3-[5-(Cyclohexylmethyl-amino)-pyridin-3-yl]-benzamide] | +
Oc1cccc(-c2cncc(Nc3ccc4ccccc4c3)c2)c1 [3-[5-(Naphthalen-2-ylamino)-pyridin-3-yl]-phenol] | +
Oc1cccc(CNc2cncc(-c3ccncc3Cl)c2)c1 [3-[(3′-Chloro-[3,4′]bipyridinyl-5-ylamino)-methyl]-phenol] | +++
Oc1cccc(CNc2cncc(-c3ccc4c(c3)OCO4)c2)c1 [3-[(5-Benzo[1,3]dioxol-5-yl-pyridin-3-ylamino)-methyl]-phenol] | ++
Oc1cccc(CNc2cncc(-c3cncc4ccccc34)c2)c1 [3-[(5-Isoquinolin-4-yl-pyridin-3-ylamino)-methyl]-phenol] | +
Oc1cccc(CNc2cncc(-c3ccccc3)c2)c1 [3-[(5-Phenyl-pyridin-3-ylamino)-methyl]-phenol] | +
Oc1cccc(CNc2cncc(-c3cccc4ncccc34)c2)c1 [3-[(5-Quinolin-5-yl-pyridin-3-ylamino)-methyl]-phenol] | +++
COc1cncc(-c2cncc(NCc3cccc(O)c3)c2)c1 [3-[(5′-Methoxy-[3,3′]bipyridinyl-5-ylamino)-methyl]-phenol] | +
NC(=O)c1cccc(-c2cncc(NCc3ccc4c(c3)OCO4)c2)c1 [3-{5-[(Benzo[1,3]dioxol-5-ylmethyl)-amino]-pyridin-3-yl}-benzamide] | +
NC(=O)c1cccc(-c2cncc(NCc3ccoc3)c2)c1 [3-{5-[(Furan-3-ylmethyl)-amino]-pyridin-3-yl}-benzamide] | +
NC(=O)c1cccc(-c2cncc(NCc3cccnc3)c2)c1 [3-{5-[(Pyridin-3-ylmethyl)-amino]-pyridin-3-yl}-benzamide] | +
NC(=O)c1cccc(-c2cncc(NCC3CCCN3)c2)c1 (centres unmarked) [3-{5-[(Pyrrolidin-2-ylmethyl)-amino]-pyridin-3-yl}-benzamide] | +
Oc1cccc(CNc2cncc(-c3ccc4[nH]ccc4c3)c2)c1 [3-{[5-(1H-Indol-5-yl)-pyridin-3-ylamino]-methyl}-phenol] | +
Oc1cccc(CNc2cncc(-c3cc[nH]n3)c2)c1 [3-{[5-(1H-Pyrazol-3-yl)-pyridin-3-ylamino]-methyl}-phenol] | ++
Nc1cccc(-c2cncc(NCc3cccc(O)c3)c2)c1 [3-{[5-(3-Amino-phenyl)-pyridin-3-ylamino]-methyl}-phenol] | +
OCc1cccc(-c2cncc(NCc3cccc(O)c3)c2)c1 [3-{[5-(3-Hydroxymethyl-phenyl)-pyridin-3-ylamino]-methyl}-phenol] | +
Nc1ccc(-c2cncc(NCc3cccc(O)c3)c2)cc1 [3-{[5-(4-Amino-phenyl)-pyridin-3-ylamino]-methyl}-phenol] | +
OCc1ccc(-c2cncc(NCc3cccc(O)c3)c2)cc1 [3-{[5-(4-Hydroxymethyl-phenyl)-pyridin-3-ylamino]-methyl}-phenol] | +

SMILES | ROK activity
Oc1ccc(-c2cnc(NCc3ccccc3)cn2)cc1 [4-(5-Benzylamino-pyrazin-2-yl)-phenol] | ++
Nc1ccc(C(=O)Nc2ccc(Nc3cnc(-c4ccncc4Cl)cn3)cc2)cc1 [4-Amino-N-{4-[5-(3-chloro-pyridin-4-yl)-pyrazin-2-ylamino]-phenyl}-benzamide] | ++
CC(Nc1cnc(-c2ccc(O)cc2)cn1)c1ccccc1 (centres unmarked) [4-[5-(1-Phenyl-ethylamino)-pyrazin-2-yl]-phenol] | ++
Oc1ccc(-c2cnc(NCCc3ccncc3)cn2)cc1 [4-[5-(2-Pyridin-4-yl-ethylamino)-pyrazin-2-yl]-phenol] | +
Oc1ccc(-c2cncc(NCc3ccc(Cl)c(Cl)c3)c2)cc1 [4-[5-(3,4-Dichloro-benzylamino)-pyridin-3-yl]-phenol] | +
Oc1ccc(-c2cncc(NCc3ccc(F)c(F)c3)c2)cc1 [4-[5-(3,4-Difluoro-benzylamino)-pyridin-3-yl]-phenol] | ++
COc1ccc(CNc2cncc(-c3ccc(O)cc3)c2)cc1OC [4-[5-(3,4-Dimethoxy-benzylamino)-pyridin-3-yl]-phenol] | +
Oc1ccc(-c2cnc(NCc3cccc(Cl)c3)cn2)cc1 [4-[5-(3-Chloro-benzylamino)-pyrazin-2-yl]-phenol] | +
Oc1ccc(-c2cncc(NCc3cccc(Cl)c3)c2)cc1 [4-[5-(3-Chloro-benzylamino)-pyridin-3-yl]-phenol] | ++
NC(=O)c1ccc(-c2cncc(NCc3cccc(O)c3)c2)cc1 [4-[5-(3-Hydroxy-benzylamino)-pyridin-3-yl]-benzamide] | +++
Oc1ccc(-c2cncc(Nc3cccc(O)c3)c2)cc1 [4-[5-(3-Hydroxy-phenylamino)-pyridin-3-yl]-phenol] | ++
Oc1ccc(-c2cncc(NCc3cccc(OC(F)(F)F)c3)c2)cc1 [4-[5-(3-Trifluoromethoxy-benzylamino)-pyridin-3-yl]-phenol] | +
Oc1ccc(-c2cncc(NCc3ccc(Cl)cc3)c2)cc1 [4-[5-(4-Chloro-benzylamino)-pyridin-3-yl]-phenol] | ++
COc1ccc(CNc2cncc(-c3ccc(O)cc3)c2)cc1 [4-[5-(4-Methoxy-benzylamino)-pyridin-3-yl]-phenol] | ++
Oc1ccc(-c2cncc(NCC3CCCCC3)c2)cc1 [4-[5-(Cyclohexylmethyl-amino)-pyridin-3-yl]-phenol] | +
NS(=O)(=O)c1ccc(CNc2cnc(-c3ccncc3)cn2)cc1 [4-[(5-Pyridin-4-yl-pyrazin-2-ylamino)-methyl]-benzenesulfonamide] | ++
CN(Cc1cccc(O)c1)c1cncc(-c2ccc(O)cc2)c1 [4-{5-[(3-hydroxy-benzyl)-methyl-amino]-pyridin-3-yl}-phenol] | +
Oc1ccc(-c2cncc(NCc3ccc4c(c3)OCO4)c2)cc1 [4-{5-[(Benzo[1,3]dioxol-5-ylmethyl)-amino]-pyridin-3-yl}-phenol] | ++
Oc1ccc(-c2cncc(NCc3ccoc3)c2)cc1 [4-{5-[(Furan-3-ylmethyl)-amino]-pyridin-3-yl}-phenol] | ++

From patent US20090163515A1, “Compounds Which Bind to the Active Site of Protein Kinase Enzymes” (Biofocus Discovery Ltd., priority 2003, published 2009)
